Experimental data from PMC9029529, “Distinct Mechanisms of Cytotoxicity in Novel Nitrogenous Heterocycles: Future Directions for a New Anti-Cancer Agent” (Molecules, 2022).

How the values were obtained:
HCT8 cells [1] = assay: MTT assay, HCT8; assay type: cell-based; settings: Homo sapiens, HCT-8, 24 h, 0 to 250 μM, read-out: IC50 Colorectal Cancer (HCT8)
Procedure: To establish the cytotoxic effect of the nitrogenous derivatives, cells were treated with various concentrations of the drugs ranging from 0 to 250 μM. Following a 24 h incubation period, cell viability was assessed using the MTT assay. Mitoxantrone served as a positive control to evaluate growth inhibition. Since heterogeneity is a hallmark of cancer, the study included cell lines with diverse genomic and proteomic profiles. […] In this regard, further optimization would be required to increase the selective therapeutic potential of compound 9. To determine whether the anti-proliferative effect of the nitrogen derivatives could be translated to other malignancies, we tested the cytotoxic effect on the HCT8 (colorectal cancer) cell line. HCT8 is an adenocarcinoma driven by the Kirsten Rat Sarcoma (KRAS) mutation, unlike MCF-10A [28].
The MTT assay was utilized to examine the imidazole derivatives’ anti-proliferative activity against MCF-10A, MDA-MB-231, and HCT8 cell lines, purchased from ATCC, USA [47]. Firstly, 5 × 10^3 cells/well were seeded in a 96-well plate in 100 μL of growth medium and were subsequently cultured overnight with various concentrations of each compound ranging from 0 to 250 µM [48]. The media was aspirated, and 50 µL of serum-free media and 50 µL of MTT solution were added to each well. Next, cells were incubated at 37 °C for 3 h, then 150 µL of MTT solvent was added into each well. After that, plates were wrapped in foil and agitated for 15 min on an orbital shaker. Finally, the absorbance was measured within 1 h at OD590 nm. Half-maximal inhibitory concentration IC50 values (μM) were calculated for each compound from the dose–response curve. Experiments were performed in triplicates.

KAIMRC1 cells = assay: CellTiter-Glo assay, KAIMRC1; assay type: cell-based; settings: Homo sapiens, 24 h, read-out: IC50 Breast Cancer KAIMRC1
Procedure: (§1) To validate the anti-proliferative activity of the imidazole derivatives, the compounds were tested against several cancer cell lines, which included breast cancer (MDA-MB-231, KAIMRC1, and KAIMRC2), colorectal cancer (HCT8), and acute promyelocytic leukemia cells (HL60). KAIMRC1 was isolated from a person with stage II-B breast cancer and is ER+/PR+ and HER2-. In comparison, KAIMRC2 was isolated from a person with metastasized breast cancer and is a triple-negative (ER-/PR-, and HER2-) tumor cell line.
(§2) The CellTiter-Glo assay (Promega™, Madison, WI, USA) was used to evaluate imidazole and oxazolone derivatives cytotoxicity against various cancer cell lines; MCF-10A, HL60, MDA-MB-231, and HCT8, purchased from ATCC, USA, except KAIMRC1 and KAIMRC2, which were isolated, established, and characterized in the core laboratory facility KAIMRC, Riyadh, Saudi Arabia. The cells were seeded in white 96-well plates at a density of 5 × 10^3 cells/well in a 100 μL of growth medium with various concentrations of each compound ranging from 0 to 250 µM. Cells were incubated at 37 °C for 24 h. Plates were equilibrated at RT for 30 min. A quantity of 100 µL of CellTiter-Glo reagent was added to each well and mixed for 2 min on an orbital shaker. Plates were incubated for 10 min at RT before measuring the luminescence using an Envision plate reader (Perkin Elmer). Half-maximal inhibitory concentration IC50 values (μM) were calculated for each imidazole derivative from the dose–response curve. The cytotoxic effect at a concentration <10 µM was considered strongly active and from 11 to 100 µM was considered moderately active, whereas above 100 µM was deemed non-active. Mitoxantrone was utilized as a positive control. Experiments were performed in triplicates.

KAIMRC2 cells = assay: CellTiter-Glo assay, KAIMRC2; assay type: cell-based; settings: Homo sapiens, 24 h, read-out: IC50 Breast Cancer KAIMRC2
Procedure: as §1, §2

HCT8 cells [2] = assay: CellTiter-Glo assay, HCT8; assay type: cell-based; settings: Homo sapiens, HCT-8, 24 h, read-out: IC50 Colorectal Cancer HCT8
Procedure: as §1, §2

HL60 cells = assay: High-content imaging (HCI) cell health / apoptosis assay; assay type: cell-based, human; settings: for viability at 31.25 µM / viability at 62.5 µM / viability at 125 µM: Homo sapiens, HL-60, HCI Cell Health, read-out: HL60 Cell Line % Cell Viability; for viability at 31.25 µM / viability at 62.5 µM / viability at 125 µM / apoptosis in HL60 cells (HCI): 48 h; for apoptosis in HL60 cells (HCI): increasing concentrations 31.25-125 µM, compared with control
Procedure: Figure 5A depicts a dose-dependent increase in cell shrinkage/condensing, and necrotic cells are also visible. […] Furthermore, even at the lowest concentration, 31.25 µM, compound 9 was more efficacious than compound 8 since there appeared to be fewer healthy cells (blue and green staining) and a greater level of shrinkage. Moreover, Figure 5B depicts the HCI Cell Health determined by means of digital analysis, displaying the HL60 percentage cell viability as a function of increasing drug concentrations.
Figure 5 HCI-based apoptosis assay. (A) HL60 cells were treated with three concentrations (31.25 µM, 62.5 µM, and 125 µM) of compounds # 8 (a–c), # 9 (d–f), and PBS for the negative control (g) for 48 h. The nucleus (blue) was stained with HOECHST 33342, the cytoplasm (Green) was stained with Calcein AM, and dead cells (Red) were stained with Propidium Iodide (PI). […] (B) HCI Cell Health Digital Analysis MetaXpress software generated the graph quantifying the cell viability, seen in B, as a percentage of HL60 cells treated with the compounds. […] TEXT PRINTED IN THE PICTURE: (B) Compound # 8: HL60 Cell Line % Cell Viability: 64.5 (125μM); HL60 Cell Line % Cell Viability: 87.4 (62.5μM); HL60 Cell Line % Cell Viability: 94.6 (31.25μM) | (B) Compound # 9: HL60 Cell Line % Cell Viability: 45.7 (125μM); HL60 Cell Line % Cell Viability: 56.9 (62.5μM); HL60 Cell Line % Cell Viability: 79.9 (31.25μM) | (B) Control: HL60 Cell Line % Cell Viability: 98.5
HL60 cells were seeded in a 96-well plate at a density of 20,000 cells per well. The cells were treated with compounds 8 and 9 and negative control (PBS) for 48 h. Three graded concentrations were used for the treatment, 31.25 µM, 62.5 µM, and 125 µM. After the treatment, the cells were stained with Calcein AM (2 µg/mL), HOECHST33342 (2.5 µg/mL), and Propidium Iodide (2.5 µg/mL) for 45 min at 37 °C and 5% CO2. Plates were imaged on a Molecular Devices ImageXpress® Microsystem, and the acquired image data were analyzed using MetaXpress® software, Molecular Devices, Downingtown, PA, USA. The Cell Health module available in the MetaXpress software was used to measure the percentage viability of live and dead cells. Experiments were performed in triplicates.

SMILES	IC50 (HCT8 cells [1]) [µM]	IC50 (KAIMRC1 cells) [µM]	IC50 (KAIMRC2 cells) [µM]	IC50 (HCT8 cells [2]) [µM]	viability at 31.25 µM (HL60 cells) [%]	viability at 62.5 µM (HL60 cells) [%]	viability at 125 µM (HL60 cells) [%]	apoptosis in HL60 cells (HCI) (HL60 cells)	cytotoxic efficacy (HL60 cells; 31.25 µM, HL60, 48 h)	cytotoxicity (HL60 cells; 62.5 µM, HL60, 48 h)
O=C1/C(=C/c2ccccc2)N=C(c2ccccc2)N1Nc1ccc([N+](=O)[O-])cc1[N+](=O)[O-] [Compound 8]	29.5	10.2	31.6	33.1	94.6	87.4	64.5	led to apoptosis	–	–
COc1cccc(/C=C2\N=C(c3ccccc3)N(Nc3ccc([N+](=O)[O-])cc3[N+](=O)[O-])C2=O)c1 [Compound 9]	13.2	22.2	27.1	22.1	79.9	56.9	45.7	led to apoptosis	approximately 20%	approximately 54%
